Assay results published in patent publication US20080249186A1, “Fungicidal Composition” (GIVAUDAN SA, priority 2005, published 2008).

Tests used:
Fusarium oxysporum = experiment: Checkerboard titration / MIC determination in microtiter plates (turbidity, fungal growth); format: cell-based; conditions: agent alone; percent by weight
Description: (§1) A test system was set up with two of most common soil inhabitating plant pathogenic fungi causing high losses in green houses: Fusarium oxysporum, and Rhizoctonia solani. Garlic oil was used as the source of allyl sulphides.
(§2) The synergistic action between this oil and eugenol or thymol was tested in Checkerboard titration experiments. The ‘checkerboard’ is the inhibitory pattern found for multiple combinations of two antimicrobial agents in concentrations equal to, above, and below their minimal inhibitory concentration for the organism being tested. These multiple combinations of antimicrobial agents are prepared in microtiter plates. The checkerboard consists then of columns which contain the same amount of one antimicrobial which is diluted along the x-axis and rows which each contain the same amount of the other antimicrobial (diluted along the y-axis). Thus, each well of the microtiter plate is a unique combination of the two agents.
(§3) A method of quantitating synergy is the ‘fractional inhibitory concentration’ (FIC) index. For each row, the FIC index is calculated from the lowest concentration of agents necessary to inhibit growth. The FIC of each agent is derived by dividing the concentration of the agent present in that well of the microtiter plate by the minimal inhibitory concentration (MIC) needed of that agent alone to inhibit the organism. The FIC index is then the sum of these values for both antibacterial agents in that well of the microtiter plate. Fractional inhibitory concentration indices are then used as measure of synergy. The FIC index is calculated for each row as follows:
(§4) where MICa, MICb are the minimal inhibitory concentration (MIC) of compound A and B in the mixture, and MICA, MICB are the MIC of A and B when used alone. When the lowest FIC index obtained in a microtiter plate in this way is less than 1, the combination is synergistic. When the FIC index is 1, the combination is additive.
(§5) All examples were made using routine techniques for MIC determination. The dilutions of the active agents were prepared in dimethylsulfoxide, and 2 μl aliquots of the different stock solutions of each of the two agents were then added to individual wells of the microtiter plates to obtain the desired checkerboard as described above. Fungi were swabbed from agar plates and suspended in 10 ml of Sabouraud liquid medium. The fungal suspensions was diluted 20 fold in the same growth medium. To each well of the microtiter plates 100 μl of such a diluted suspension of the test organism was distributed. The plates were covered with plastic films and incubated for 48 h at 30° C. with shaking at 250 rpm. The turbidity was then measured with a microplate reader to determine fungal growth. […]

Rhizoctonia solani = experiment: as above; format: cell-based; conditions: agent alone; percent by weight
Description: as §1, §2, §3, §4, §5

Row | SMILES | MIC of pure compounds, F. oxysporum (Fusarium oxysporum) [%] | MIC of pure compounds, R. solani (Rhizoctonia solani) [%]
1 | C=CCc1ccc(O)c(OC)c1 [eugenol, 4-hydroxy-3-methoxy-1-allylbenzene] | 0.05 | 0.025
2 | Cc1ccc(C(C)C)c(O)c1 [thymol, 1-methyl-3-hydroxy-4-iso-propylbenzene] | 0.05 | 0.0125
